Molecular target: T1, human TLR9 (Homo sapiens, UniProt Q9NR96)
T1 construct: host or cells: HEK293 (HEK-Blue hTLR9)
T1 sequence (Q9NR96 26-1032): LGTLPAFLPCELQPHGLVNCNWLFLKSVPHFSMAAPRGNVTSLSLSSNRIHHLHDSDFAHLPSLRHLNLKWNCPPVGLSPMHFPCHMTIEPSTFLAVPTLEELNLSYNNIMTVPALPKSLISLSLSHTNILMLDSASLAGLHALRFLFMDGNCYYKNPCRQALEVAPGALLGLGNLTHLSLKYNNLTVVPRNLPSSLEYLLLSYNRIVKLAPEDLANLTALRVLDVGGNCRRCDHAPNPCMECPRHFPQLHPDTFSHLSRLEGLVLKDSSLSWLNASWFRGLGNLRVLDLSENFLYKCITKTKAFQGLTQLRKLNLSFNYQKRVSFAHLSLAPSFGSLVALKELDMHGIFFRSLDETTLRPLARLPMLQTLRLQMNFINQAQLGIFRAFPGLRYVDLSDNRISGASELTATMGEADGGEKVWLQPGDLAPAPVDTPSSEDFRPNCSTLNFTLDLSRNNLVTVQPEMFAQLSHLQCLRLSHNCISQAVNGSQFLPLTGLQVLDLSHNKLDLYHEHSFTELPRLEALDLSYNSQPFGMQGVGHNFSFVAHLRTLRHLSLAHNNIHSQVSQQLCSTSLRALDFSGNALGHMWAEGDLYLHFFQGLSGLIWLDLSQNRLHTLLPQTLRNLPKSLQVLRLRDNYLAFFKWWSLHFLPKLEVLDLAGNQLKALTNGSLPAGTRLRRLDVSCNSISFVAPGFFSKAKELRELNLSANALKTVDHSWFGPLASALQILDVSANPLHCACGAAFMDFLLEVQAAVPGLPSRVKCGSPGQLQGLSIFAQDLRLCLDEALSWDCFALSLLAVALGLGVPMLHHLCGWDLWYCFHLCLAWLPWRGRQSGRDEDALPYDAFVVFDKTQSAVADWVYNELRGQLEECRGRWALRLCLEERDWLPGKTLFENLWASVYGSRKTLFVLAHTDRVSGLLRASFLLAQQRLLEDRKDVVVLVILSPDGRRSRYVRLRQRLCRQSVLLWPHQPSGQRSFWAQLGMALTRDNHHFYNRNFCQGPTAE
Assay: HEK293-Blue-hTLR-9 cells assay
Assay type: cell-based
Details: HEK293-Blue-hTLR9 cells, ODN2006 stimulation, 20 hrs, SEAP reporter; read-out: HEK/hTLR9 IC50
Text: A stable HEK293-Blue-hTLR-9 cell line was purchased from InvivoGen (Cat. #: hkb-htlr9, San Diego, California, USA). These cells were originally designed for studying the stimulation of human TLR9 by monitoring the activation of NF-κB. A SEAP (secreted embryonic alkaline phosphatase) reporter gene was placed under the control of the IFN-β minimal promoter fused to five NF-κB and AP-1-binding sites. The SEAP was induced by activating NF-κB and AP-1 via stimulating HEK-Blue hTLR9 cells with TLR9 ligands. Therefore the reporter expression was declined by TLR9 antagonist under the stimulation of a ligand, such as ODN2006 (Cat. #: tlrl-2006-1, Invivogen, San Diego, California, USA), for incubation of 20 hrs. The cell culture supernatant SEAP reporter activity was determined using QUANTI-Blue™ kit (Cat. #: rep-qb1, Invivogen, San Diego, California, USA) at a wavelength of 640 nm, a detection medium that turns purple or blue in the presence of alkaline phosphatase.
HEK293-Blue-hTLR9 cells were incubated at a density of 250,000˜450,000 cells/mL in a volume of 170 μL in a 96-well plate in Dulbecco's Modified Eagle's medium (DMEM) containing 4.5 g/L glucose, 50 U/mL penicillin, […], 2 mM L-glutamine, 10% (v/v) heat-inactivated fetal bovine serum with addition of 20 μL test compound in a serial dilution in the presence of final DMSO at 1% and 10 μL of 20 uM ODN2006 in above DMEM, perform incubation under 37° C. in a CO2 incubator for 20 hrs. Then 20 μL of the supernatant from each well was incubated with 180 μL Quanti-blue substrate solution at 37° C. for 2 h and the absorbance was read at 620˜655 nm using a spectrophotometer. The signaling pathway that TLR9 activation leads to downstream NF-κB activation has been widely accepted, and therefore similar reporter assay was modified for evaluating TLR9 antagonist.

**Q.** How did the IC50 turn out when `CO[C@H]1CN(c2ccc([C@@H]3CCN4[C@@H](C3)CN(c3ccc(C#N)c5ncccc35)C[C@H]4C)cn2)C[C@@H]1N` [Example 6, 5-[(4R,8R,9aS)-8-[6-[(3S,4S)-3-amino-4-methoxy-pyrrolidin-1-yl]-3-pyridyl]-4-methyl-1,3,4,6,7,8,9,9a-octahydropyrido[1,2-a]pyrazin-2-yl]quinoline-8-carbonitrile] was run?
**A.** Its IC50 is 87 nM.

**Q.** With `[2H]c1ccc2c(N3C[C@@H]4C[C@H](Nc5ccc(C[C@H]6CNCCO6)cc5)CCN4[C@H](C)C3)ccc(C#N)c2n1` [Example 34, 5-[(4R,8R,9aS)-4-methyl-8-[4-[[(2S)-morpholin-2-yl]methyl]anilino]-1,3,4,6,7,8,9,9a-octahydropyrido[1,2-a]pyrazin-2-yl]-2-deuterio-quinoline-8-carbonitrile] as the compound, how does the IC50 read?
**A.** The IC50 was 57 nM.

**Q.** With `C[C@@H]1CN(c2ccc(C#N)c3ncccc23)C[C@@H]2C[C@@H](Oc3ccc(N4CCNCC4)nc3)CCN21` [Example 16, 5-[(4R,8S,9aS)-4-methyl-8-[(6-piperazin-1-yl-3-pyridyl)oxy]-1,3,4,6,7,8,9,9a-octahydropyrido[1,2-a]pyrazin-2-yl]quinoline-8-carbonitrile] as the compound, how does the IC50 read?
**A.** The IC50 was 37 nM.

**Q.** How did the IC50 turn out when `C[C@@H]1CN(c2ccc(C#N)c3ncccc23)CC2C[C@H](c3ccc(N4CCNCC4)cc3)CCN21` (stereo partly drawn) [Example 3, 5-[(4R,8R)-4-methyl-8-(4-piperazin-1-ylphenyl)-1,3,4,6,7,8,9,9a-octahydropyrido[1,2-a]pyrazin-2-yl]quinoline-8-carbonitrile] was run?
**A.** Its IC50 is 92 nM.

**Q.** How did the IC50 turn out when `C[C@@H]1CN(c2ccc(C#N)c3ncccc23)C[C@@H]2C[C@H](c3ccc(N4CC(N)C4)nc3)CCN21` [Example 7, 5-[(4R,8R,9aS)-8-[6-(3-aminoazetidin-1-yl)-3-pyridyl]-4-methyl-1,3,4,6,7,8,9,9a-octahydropyrido[1,2-a]pyrazin-2-yl]quinoline-8-carbonitrile] was run?
**A.** The IC50 was 184 nM.

**Q.** With `C[C@@H]1CN(c2ccc(C#N)c3ncccc23)C[C@@H]2C[C@@H](NCc3ccc(N4CCNCC4)cc3)CCN21` [Example 17, 5-[(4R,8S,9aS)-4-methyl-8-[(4-piperazin-1-ylphenyl)methylamino]-1,3,4,6,7,8,9,9a-octahydropyrido[1,2-a]pyrazin-2-yl]quinoline-8-carbonitrile] as the compound, how does the IC50 read?
**A.** Its IC50 is less than 32 nM.

**Q.** `C[C@@H]1CN(c2ccc(C#N)c3ncccc23)C[C@@H]2C[C@H](Nc3ccc([C@H]4CNCCO4)cc3)CCN21` [Example 20, 5-[(4R,8R,9aS)-4-methyl-8-[4-[(2S)-morpholin-2-yl]anilino]-1,3,4,6,7,8,9,9a-octahydropyrido[1,2-a]pyrazin-2-yl]quinoline-8-carbonitrile] was tested. Which IC50 did it give?
**A.** The IC50 was 50 nM.

**Q.** `CO[C@@H]1CN(c2ccc(C3CN([C@@H]4CCN5[C@@H](C4)CN(c4ccc(C#N)c6ncccc46)C[C@H]5C)C3)cc2)C[C@H]1N` [Example 30, 5-[(4R,8R,9aS)-8-[3-[4-[(3R,4R)-3-amino-4-methoxy-pyrrolidin-1-yl]phenyl]azetidin-1-yl]-4-methyl-1,3,4,6,7,8,9,9a-octahydropyrido[1,2-a]pyrazin-2-yl]quinoline-8-carbonitrile] was tested. Which IC50 did it give?
**A.** The IC50 was 78 nM.

**Q.** Which IC50 does the source give for `C[C@@H]1CN(c2ccc(C#N)c3ncccc23)C[C@@H]2C[C@@H](c3ccc(CC4CNCCO4)cc3)CCN21` (stereo partly drawn) [Example 26, 5-[(4R,8S,9aS)-4-methyl-8-[4-(morpholin-2-ylmethyl)phenyl]-1,3,4,6,7,8,9,9a-octahydropyrido[1,2-a]pyrazin-2-yl]quinoline-8-carbonitrile] here?
**A.** The IC50 was 95 nM.

**Q.** For `C[C@@H]1CN(c2ccc(C#N)c3ncccc23)C[C@@H]2C[C@@H](c3ccc(C4CNCCO4)cc3)CCN21` (stereo partly drawn) [Example 24, 5-[(4R,8S,9aS)-4-methyl-8-(4-morpholin-2-ylphenyl)-1,3,4,6,7,8,9,9a-octahydropyrido[1,2-a]pyrazin-2-yl]quinoline-8-carbonitrile], which IC50 is on record?
**A.** Its IC50 is 82 nM.

**Q.** With `C[C@@H]1CN(c2ccc(C#N)c3ncccc23)C[C@@H]2C[C@H](c3ccc(N4C[C@@H](N)[C@@H](F)C4)nc3)CCN21` [Example 19, 5-[(4R,8R,9aS)-8-[6-[(3R,4S)-3-amino-4-fluoro-pyrrolidin-1-yl]-3-pyridyl]-4-methyl-1,3,4,6,7,8,9,9a-octahydropyrido[1,2-a]pyrazin-2-yl]quinoline-8-carbonitrile] as the compound, how does the IC50 read?
**A.** The IC50 was 82 nM.

**Q.** Which IC50 does the source give for `C[C@@H]1CN(c2ccc(C#N)c3ncccc23)C[C@@H]2C[C@H](Nc3ccc(C[C@@H]4CNCCO4)cc3)CCN21` [Example 21, 5-[(4R,8R,9aS)-4-methyl-8-[4-[[(2R)-morpholin-2-yl]methyl]anilino]-1,3,4,6,7,8,9,9a-octahydropyrido[1,2-a]pyrazin-2-yl]quinoline-8-carbonitrile] here?
**A.** The IC50 was 86 nM.

**Q.** For `C[C@@H]1CN(c2ccc(C#N)c3ncccc23)C[C@@H]2C[C@H](NCc3ccc(N4CCNCC4)cc3)CCN21` [Example 1, 5-[(4R,8R,9aS)-4-methyl-8-[(4-piperazin-1-ylphenyl)methylamino]-1,3,4,6,7,8,9,9a-octahydropyrido[1,2-a]pyrazin-2-yl]quinoline-8-carbonitrile], which IC50 is on record?
**A.** Its IC50 is less than 32 nM.

**Q.** Which IC50 does the source give for `CO[C@@H]1CN(c2ccc([C@@H]3CCN4[C@@H](C3)CN(c3ccc(C#N)c5ncccc35)C[C@H]4C)cn2)C[C@@H]1N` [Example 13, 5-[(4R,8R,9aS)-8-[6-[(3S,4R)-3-amino-4-methoxy-pyrrolidin-1-yl]-3-pyridyl]-4-methyl-1,3,4,6,7,8,9,9a-octahydropyrido[1,2-a]pyrazin-2-yl]quinoline-8-carbonitrile] here?
**A.** The IC50 was 94 nM.

**Q.** With `C[C@@H]1CN(c2ccc(C#N)c3ncccc23)C[C@@H]2CC(c3ccc(C[C@@H]4CNCCO4)cc3)CCN21` (stereo in doubt) [Example 25, 5-[(4R,8R,9aS)-4-methyl-8-[4-[[(2R)-morpholin-2-yl]methyl]phenyl]-1,3,4,6,7,8,9,9a-octahydropyrido[1,2-a]pyrazin-2-yl]quinoline-8-carbonitrile] as the compound, how does the IC50 read?
**A.** The IC50 was 78 nM.

**Q.** With `[2H]c1ccc2c(N3C[C@@H]4C[C@H](Nc5ccc(C[C@@H]6CNCCO6)cc5)CCN4[C@H](C)C3)ccc(C#N)c2n1` [Example 22, 5-[(4R,8R,9aS)-4-methyl-8-[4-[[(2R)-morpholin-2-yl]methyl]anilino]-1,3,4,6,7,8,9,9a-octahydropyrido[1,2-a]pyrazin-2-yl]-2-deuterio-quinoline-8-carbonitrile] as the compound, how does the IC50 read?
**A.** The IC50 was 84 nM.

**Q.** Which IC50 does the source give for `CO[C@H]1CN(c2ccc(O[C@H]3CCN4[C@@H](C3)CN(c3ccc(C#N)c5ncccc35)C[C@H]4C)cn2)C[C@H]1N` [Example 28, 5-[(4R,8S,9aS)-8-[[6-[(3R,4S)-3-amino-4-methoxy-pyrrolidin-1-yl]-3-pyridyl]oxy]-4-methyl-1,3,4,6,7,8,9,9a-octahydropyrido[1,2-a]pyrazin-2-yl]quinoline-8-carbonitrile] here?
**A.** The IC50 was 44 nM.

**Q.** `C[C@@H]1CN(c2ccc(C#N)c3ncccc23)C[C@@H]2C[C@H](N3CC(c4ccc(N5CCNCC5)cc4)C3)CCN21` [Example 9, 5-[(4R,8R,9aS)-4-methyl-8-[3-(4-piperazin-1-ylphenyl)azetidin-1-yl]-1,3,4,6,7,8,9,9a-octahydropyrido[1,2-a]pyrazin-2-yl]quinoline-8-carbonitrile] was tested. Which IC50 did it give?
**A.** Its IC50 is less than 32 nM.

Reference: patent publication US12421229B2, “Hydropyrido[1,2-α]pyrazine compounds for the treatment of autoimmune disease” (Hoffmann-La Roche Inc., priority 2019, dated 2025)
